Results taken from PubChem BioAssay (NCI).
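Step 1: Grow cells in 96-well plates. Step 2: Expose to compound for 48 hours at 5 concentrations. Step 3: Interpolate endpoints linearly; if unreached, use highest concentration. The concentration for full growth arrest is given as TGI.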

Columns and labels:
Assay in all cases: NCI-60 cell line screen, 48 h
SK-MEL-5 melanoma = tested on: SK-MEL-5 melanoma
COLO 205 colon = tested on: COLO 205 colon
CAKI-1 renal = tested on: CAKI-1 renal
NCI-H226 lung = tested on: NCI-H226 lung
OVCAR-3 ovarian = tested on: OVCAR-3 ovarian
KM12 colon = tested on: KM12 colon
HL-60(TB) leukemia = tested on: HL-60(TB) leukemia
BT-549 breast = tested on: BT-549 breast
ACHN renal = tested on: ACHN renal
MDA-N = tested on: MDA-N
OVCAR-5 ovarian = tested on: OVCAR-5 ovarian
RXF 393 renal = tested on: RXF 393 renal
UO-31 renal = tested on: UO-31 renal
DU-145 prostate = tested on: DU-145 prostate
A498 renal = tested on: A498 renal
SK-OV-3 ovarian = tested on: SK-OV-3 ovarian
HCT-116 colon = tested on: HCT-116 colon
MOLT-4 leukemia = tested on: MOLT-4 leukemia
M14 melanoma = tested on: M14 melanoma
MCF7 breast = tested on: MCF7 breast
UACC-62 melanoma = tested on: UACC-62 melanoma
RPMI-8226 leukemia = tested on: RPMI-8226 leukemia
PC-3 prostate = tested on: PC-3 prostate
SF-295 CNS = tested on: SF-295 CNS
HOP-62 NSCLC = tested on: HOP-62 NSCLC
HOP-92 NSCLC = tested on: HOP-92 NSCLC
HS 578T breast = tested on: HS 578T breast
A549 NSCLC = tested on: A549 NSCLC
SF-539 CNS = tested on: SF-539 CNS
HCC-2998 colon = tested on: HCC-2998 colon
SN12C renal = tested on: SN12C renal
EKVX NSCLC = tested on: EKVX NSCLC
786-0 renal = tested on: 786-0 renal
MDA-MB-231 breast = tested on: MDA-MB-231 breast
SF-268 CNS = tested on: SF-268 CNS
HCT-15 colon = tested on: HCT-15 colon
HT29 colon = tested on: HT29 colon
NCI-H23 lung = tested on: NCI-H23 lung
SNB-19 CNS = tested on: SNB-19 CNS
NCI-H522 lung = tested on: NCI-H522 lung
SNB-75 CNS = tested on: SNB-75 CNS
U251 CNS = tested on: U251 CNS
SW-620 colon = tested on: SW-620 colon
NCI-H460 lung = tested on: NCI-H460 lung
TK-10 renal = tested on: TK-10 renal
CCRF-CEM leukemia = tested on: CCRF-CEM leukemia
LOX IMVI melanoma = tested on: LOX IMVI melanoma
MDA-MB-435 = tested on: MDA-MB-435
IGROV1 ovarian = tested on: IGROV1 ovarian
UACC-257 melanoma = tested on: UACC-257 melanoma
K-562 leukemia = tested on: K-562 leukemia
OVCAR-4 ovarian = tested on: OVCAR-4 ovarian
OVCAR-8 ovarian = tested on: OVCAR-8 ovarian
NCI/ADR-RES ovarian = tested on: NCI/ADR-RES ovarian
SK-MEL-2 melanoma = tested on: SK-MEL-2 melanoma
MALME-3M melanoma = tested on: MALME-3M melanoma
T-47D breast = tested on: T-47D breast
SK-MEL-28 melanoma = tested on: SK-MEL-28 melanoma
SR leukemia = tested on: SR leukemia

CN(C)CCCNc1c2c(nc3ccc(Cl)cc13)CCCC2
TGI (SK-MEL-5 melanoma): 27.8 µM
TGI (COLO 205 colon): 21.5 µM
TGI (CAKI-1 renal): 65.4 µM
TGI (NCI-H226 lung): 49.7 µM
TGI (OVCAR-3 ovarian): 34.9 µM
TGI (KM12 colon): 30.8 µM
TGI (HL-60(TB) leukemia): 40.1 µM
TGI (BT-549 breast): 43.7 µM
TGI (ACHN renal): 45.5 µM
TGI (MDA-N): 26.9 µM
TGI (OVCAR-5 ovarian): 49 µM
TGI (RXF 393 renal): 28.6 µM
TGI (UO-31 renal): 28 µM
TGI (DU-145 prostate): 31.9 µM
TGI (A498 renal): 32.6 µM
TGI (SK-OV-3 ovarian): 66.2 µM
TGI (HCT-116 colon): 21.5 µM
TGI (MOLT-4 leukemia): 20.8 µM
TGI (M14 melanoma): 28.1 µM
TGI (MCF7 breast): 25.5 µM
TGI (UACC-62 melanoma): 32.1 µM
TGI (RPMI-8226 leukemia): 28.7 µM
TGI (PC-3 prostate): 32.8 µM
TGI (SF-295 CNS): 29.7 µM
TGI (HOP-62 NSCLC): 30.5 µM
TGI (HOP-92 NSCLC): 27.8 µM
TGI (HS 578T breast): 40.6 µM
TGI (A549 NSCLC): 39.6 µM
TGI (SF-539 CNS): 28.5 µM
TGI (HCC-2998 colon): 16.3 µM
TGI (SN12C renal): 28.9 µM
TGI (EKVX NSCLC): 38.3 µM
TGI (786-0 renal): 23.1 µM
TGI (MDA-MB-231 breast): 31.2 µM
TGI (SF-268 CNS): 28.6 µM
TGI (HCT-15 colon): 32.4 µM
TGI (HT29 colon): 23.2 µM
TGI (NCI-H23 lung): 30.6 µM
TGI (SNB-19 CNS): 49.4 µM
TGI (NCI-H522 lung): 26.8 µM
TGI (SNB-75 CNS): 30.8 µM
TGI (U251 CNS): 30.1 µM
TGI (SW-620 colon): 31.8 µM
TGI (NCI-H460 lung): 23.9 µM
TGI (TK-10 renal): 36.4 µM
TGI (CCRF-CEM leukemia): 43.7 µM
TGI (LOX IMVI melanoma): 27.3 µM
TGI (MDA-MB-435): 32.3 µM
TGI (IGROV1 ovarian): 37.5 µM
TGI (UACC-257 melanoma): 30.7 µM
TGI (K-562 leukemia): 12 µM
TGI (OVCAR-4 ovarian): 43.8 µM
TGI (OVCAR-8 ovarian): 32.9 µM
TGI (NCI/ADR-RES ovarian): 45 µM
TGI (SK-MEL-2 melanoma): 34.5 µM
TGI (MALME-3M melanoma): 29.7 µM
TGI (T-47D breast): > 73 µM
TGI (SK-MEL-28 melanoma): 35.3 µM
TGI (SR leukemia): 6.88 µM

O=C(/C=C/c1cccc2ccccc12)c1ccccc1
TGI (SK-MEL-5 melanoma): 28.4 µM
TGI (COLO 205 colon): 48.6 µM
TGI (CAKI-1 renal): 28 µM
TGI (NCI-H226 lung): 27.9 µM
TGI (OVCAR-3 ovarian): 22.4 µM
TGI (KM12 colon): > 42.2 µM
TGI (HL-60(TB) leukemia): > 21.2 µM
TGI (BT-549 breast): 28.5 µM
TGI (ACHN renal): 26.9 µM
TGI (MDA-N): 23.9 µM
TGI (OVCAR-5 ovarian): 28.8 µM
TGI (RXF 393 renal): 27.5 µM
TGI (UO-31 renal): 16.3 µM
TGI (DU-145 prostate): 29 µM
TGI (A498 renal): 33.3 µM
TGI (SK-OV-3 ovarian): 34.2 µM
TGI (HCT-116 colon): 24.1 µM
TGI (MOLT-4 leukemia): > 34.7 µM
TGI (M14 melanoma): 32.9 µM
TGI (MCF7 breast): 15.1 µM
TGI (UACC-62 melanoma): 25.3 µM
TGI (RPMI-8226 leukemia): 7.98 µM
TGI (PC-3 prostate): 20.4 µM
TGI (SF-295 CNS): 35.1 µM
TGI (HOP-62 NSCLC): 43 µM
TGI (HOP-92 NSCLC): 33.6 µM
TGI (HS 578T breast): > 74.9 µM
TGI (A549 NSCLC): > 52.4 µM
TGI (SF-539 CNS): 15.6 µM
TGI (HCC-2998 colon): 34.1 µM
TGI (SN12C renal): 24.9 µM
TGI (EKVX NSCLC): 26.3 µM
TGI (786-0 renal): 23.5 µM
TGI (MDA-MB-231 breast): 25.5 µM
TGI (SF-268 CNS): 32.6 µM
TGI (HCT-15 colon): 23.1 µM
TGI (HT29 colon): 15.8 µM
TGI (NCI-H23 lung): 28 µM
TGI (SNB-19 CNS): 30.2 µM
TGI (NCI-H522 lung): 25.2 µM
TGI (SNB-75 CNS): 30.6 µM
TGI (U251 CNS): 22 µM
TGI (SW-620 colon): 15.5 µM
TGI (NCI-H460 lung): 37.2 µM
TGI (TK-10 renal): 17.6 µM
TGI (CCRF-CEM leukemia): 87.3 µM
TGI (LOX IMVI melanoma): 4.53 µM
TGI (MDA-MB-435): 24.1 µM
TGI (IGROV1 ovarian): 20.5 µM
TGI (UACC-257 melanoma): 29.7 µM
TGI (K-562 leukemia): 8.69 µM
TGI (OVCAR-4 ovarian): 27.1 µM
TGI (OVCAR-8 ovarian): 21.6 µM
TGI (NCI/ADR-RES ovarian): 33.6 µM
TGI (SK-MEL-2 melanoma): 34.2 µM
TGI (MALME-3M melanoma): 26.9 µM
TGI (T-47D breast): 27.3 µM
TGI (SK-MEL-28 melanoma): 33.6 µM
TGI (SR leukemia): > 100 µM
